# From patent US20260083751A1, “ALLOSTERIC MODULATORS OF ANDROGEN RECEPTOR COACTIVATOR RECRUITMENT FOR CRPC THERAPY” (University of Pittsburgh – Of the Commonwealth System of …, priority 2022, published 2026)
# pIC50: −log10 of the molar value.
# Biological target: T1, AR-TIF2 PPI (Homo sapiens, UniProt P10275)
# T1 construct: AR-LBD residues (662-919) were incorporated into one biosensor; expressed in transfected cells; host or cells: U-2 OS osteosarcoma cells, coinfected with recombinant adenoviruses
# T1 sequence (P10275 662-919): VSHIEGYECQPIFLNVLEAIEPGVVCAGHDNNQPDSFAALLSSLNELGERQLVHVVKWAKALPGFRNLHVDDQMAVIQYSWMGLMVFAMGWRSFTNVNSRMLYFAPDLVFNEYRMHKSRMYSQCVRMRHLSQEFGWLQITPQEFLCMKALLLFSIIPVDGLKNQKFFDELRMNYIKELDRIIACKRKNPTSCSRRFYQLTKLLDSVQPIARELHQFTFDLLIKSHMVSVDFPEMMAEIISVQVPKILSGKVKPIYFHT
# Assay: AR-TIF2 PPIB assay, both formats stated jointly
# Assay type: cell-based
# Details: both assay formats; read-out: AR-TIF2 PPI inhibitor/disruptor IC50s
# Procedure: (§1) AR-TIF2 Protein-Protein Interaction Biosensor Assay: The AR-TIF2 PPIB HCS assay was performed in U-2 OS osteosarcoma cells as described previously (Fancher et al., Assay Drug Dev Technol. 2016, 14:453-477; Fancher et al., Assay Drug Dev Technol. 2018, 16:297-319; Hua et al., Assay Drug Dev Technol. 2014, 12:395-418; Hua et al., Methods Mol Biol. 2018, 1683:211-227). Briefly, U-2 OS cells were coinfected with recombinant adenovirus biosensor expression constructs and seeded at 2,500 cells per well in 384-well collagen-coated microplates (Greiner Bio-One #781956) and plates were incubated overnight at 37° C. in 5% CO2 and 95% humidity. […] After the appropriate time, assay plates were fixed by transfer of 50 μL of pre-warmed (37° C.) 7.4% formaldehyde and 2 μg/mL Hoechst 33342 in PBS and incubation at room temperature for 30 minutes. Liquid was aspirated, plates were washed twice with 85 μL PBS, leaving the final wash in the plate. Plates were sealed with adhesive aluminum plate seals, and fluorescent images of three fields of view were acquired in the DAPI (Hoechst stained nuclei), FITC (TIF2-GFP) and Texas Red (AR-RFP) channels on an ImageXpress® Micro (IXM) automated HCS platform (Molecular Devices LLC, Sunnyvale, CA) using a 10× Plan Fluor 0.3 NA objective. Images were analyzed using the Translocation Enhanced (TE) image analysis module of the MetaXpress® software (Molecular Devices, LLC, San Jose, CA) as described previously (Fancher et al., Assay Drug Dev Technol. 2016, 14:453-477; Fancher et al., Assay Drug Dev Technol. 2018, 16:297-319; Hua et al., Assay Drug Dev Technol. 2014, 12:395-418; Hua et al., Methods Mol Biol. 2018, 1683:211-227).
# A positional AR-TFI2 protein-protein interaction biosensor (PPIB) assay was used to identify small molecules that inhibited DHT-induced formation of AR-TIF2 PPIs and/or disrupted pre-existing AR-TIF2 PPIs (Fancher et al., Assay Drug Dev Technol 2016, 14(8):453-477; Fancher et al., Assay Drug Dev Technol 2018, 16(6):297-319; Hua et al., Assay Drug Dev Technol 2014, 12:395-418; Hua et al., Methods Mol biol 2018, 1683:211-227). AR-LBD residues (662-919) were incorporated into one biosensor and TIF2 residues (725-840) containing the 3rd NR box LXXLL motif into the second interacting biosensor partner (Id.) The AR-TIF2 PPIB recapitulates the orthosteric ligand (OSL)-induced translocation of AR from the cytoplasm into the nucleus where PPIs with TIF2 result in colocalization of both biosensors in the nucleolus. Using three libraries, a total of 143,535 compounds were screened—a 10,000-compound ChemDiv PPI focused diversity library, a 50,000-compound ChemBridge diversity library, and a 83,535-compound library provided by the NCI's Chemical Biology Consortium. The 10K and 50K diversity libraries were subsets of 142K and 810K parent libraries, enabling screening of a representative subset of >1×10^6 compounds. AR-TIF2 PPI inhibitor and disruptor actives were confirmed in the HCS assay and counter screens designed to identify and exclude nuisance/interference or non-selective compounds (Fancher et al., Assay Drug Dev Technol 2018, 16(6):297-319). […] An AR-GFP subcellular localization assay was used to exclude compounds that reduced AR expression and/or restricted its localization to the cytoplasm (Fancher et al., Assay Drug Dev Technol 2018, 16(6):297-319; Johnston et al., Assay Drug Dev Technol 2016, 14:226-239; Masodi et al., Mol Cancer Ther 2017, 16(10):2120-2129). Hits were structurally classified, clustered, and medicinal chemistry computational filters (PAINS/REOS) were used to exclude nuisance compounds and evaluate drug-like properties (Baell, J Med Chem 2010, 53(7):2719-2740; Baell, ACS Chem. Biol. 2018, 13:36-44; Johnston, Curr Opin Chem Biol 2011, 15:174-182; Walters, Adv Drug Deliv Rev 2002, 54:255-271). […]
row,Structure (SMILES),pIC50
1,Cc1nsc(NC(=O)N2CCC(F)CC2)n1 [Compound S2-10],< 4.00
2,Cc1nsc(NC(=O)N2CCC(Cn3ccnc3C)CC2)n1 [Compound S2-8],< 4.00
3,Cc1nsc(NC(=O)N2CCC(CN3CCCC3=O)CC2)n1 [Compound S2-9],< 4.00

# Biological target: T1, AR-TIF2 PPI
# Assay: AR-TIF2 PPIB HCS assay: inhibition of DHT-induced AR-TIF2 PPI formation (compound then DHT)
# Assay type: cell-based
# Details: U-2 OS cells, 25 nM DHT; read-out: Inhibition DHT-induced AR-TIF2 PPI Formation IC50
# Procedure: as §1
# (§2) For the 96-well AR-LBD H^3-DHT radioligand binding assay, eight minimum and maximum plate control wells were utilized to normalize the data. For the PC cell line growth inhibition assays the DMSO control data from the TO and T72 assay plates was used to assess the dynamic range of the T0 to T72 cell growth, and to calculate S:B ratios and Z′-factor coefficient statistics for the assay signal window (T0 to T72). To normalize the 72 h compound exposure PC growth inhibition data, the signals from the compound treated wells were processed and expressed as % of the T72 DMSO plate controls. IC50 and GI50 values for each of the bioassays were calculated using GraphPad Prism 9 software to plot and fit data to curves using the Sigmoidal dose response variable slope equation Y=Bottom+[Top-Bottom]/[1+10^(Log EC50−X)*HillSlope].
# (§3) A positional AR-TFI2 protein-protein interaction biosensor (PPIB) assay was used to identify small molecules that inhibited DHT-induced formation of AR-TIF2 PPIs and/or disrupted pre-existing AR-TIF2 PPIs (Fancher et al., Assay Drug Dev Technol 2016, 14(8):453-477; Fancher et al., Assay Drug Dev Technol 2018, 16(6):297-319; Hua et al., Assay Drug Dev Technol 2014, 12:395-418; Hua et al., Methods Mol biol 2018, 1683:211-227). AR-LBD residues (662-919) were incorporated into one biosensor and TIF2 residues (725-840) containing the 3rd NR box LXXLL motif into the second interacting biosensor partner (Id.) The AR-TIF2 PPIB recapitulates the orthosteric ligand (OSL)-induced translocation of AR from the cytoplasm into the nucleus where PPIs with TIF2 result in colocalization of both biosensors in the nucleolus. Using three libraries, a total of 143,535 compounds were screened—a 10,000-compound ChemDiv PPI focused diversity library, a 50,000-compound ChemBridge diversity library, and a 83,535-compound library provided by the NCI's Chemical Biology Consortium. The 10K and 50K diversity libraries were subsets of 142K and 810K parent libraries, enabling screening of a representative subset of >1×10^6 compounds. AR-TIF2 PPI inhibitor and disruptor actives were confirmed in the HCS assay and counter screens designed to identify and exclude nuisance/interference or non-selective compounds (Fancher et al., Assay Drug Dev Technol 2018, 16(6):297-319). […]
row,Structure (SMILES),pIC50
1,Cc1nsc(NC(=O)N2CCC(F)CC2)n1 [Compound S2-10],< 4.00
2,Cc1nsc(NC(=O)N2CCC(Cn3ccnc3C)CC2)n1 [Compound S2-8],< 4.00
3,Cc1nsc(NC(=O)N2CCC(CN3CCCC3=O)CC2)n1 [Compound S2-9],< 4.00

# Same assay, conditions: compound then DHT; U-2 OS cells; read-out: C then D IC50
row,Structure (SMILES),pIC50
1,CNC(=O)c1ccc(OC)c(-c2c[nH]c3ccc(C)cc23)c1 [Compound S3-22],< 4.00
2,Cc1cccc2c(-c3ccc(Cl)c(C(N)=O)c3)c[nH]c12 [Compound S3-23],6.00
3,Cc1ccc2[nH]cc(-c3cc(CN)ccc3F)c2c1 [Compound S3-20],4.21
4,Cc1c(-c2ccccc2F)[nH]c2ccc(CNC(=O)c3cc[nH]n3)cc12 [Compound S3-16],4.54
5,Cc1nsc(NC(=O)N2CCC(F)CC2)n1 [Compound S2-10],< 4.00
6,CCc1[nH]c2c(CNC(=O)CCCc3cn[nH]c3)cc(F)cc2c1C [Compound S3-25],4.11
7,Cc1c(-c2ccccc2F)[nH]c2ccc(CNC(=O)Cc3cccnc3)cc12 [Compound S3-19],4.16
8,Cc1nsc(NC(=O)N2CCC(Cn3ccnc3C)CC2)n1 [Compound S2-8],< 4.00
9,Cc1cccc2c(-c3cccc(C(N)=O)n3)c[nH]c12 [Compound S3-24],5.39
10,Cc1nsc(NC(=O)N2CCC(CN3CCCC3=O)CC2)n1 [Compound S2-9],< 4.00

# Test system: not listed separately
# Assay: GI50 given in Tables 4-6 (test not described)
# Assay type: cell-based
# Details: cell line not stated
row,Structure (SMILES),GI50
1,CNC(=O)c1ccc(OC)c(-c2c[nH]c3ccc(C)cc23)c1 [Compound S3-22],> 100 µM
2,Cc1cccc2c(-c3ccc(Cl)c(C(N)=O)c3)c[nH]c12 [Compound S3-23],> 100 µM
3,Cc1c(-c2ccccc2F)[nH]c2ccc(CNC(=O)C3=NNC(=O)CC3)cc12 [Compound S3-18],> 100 µM
4,Cc1ccc2[nH]cc(-c3cc(CN)ccc3F)c2c1 [Compound S3-20],22.1 µM
5,Cc1c(-c2ccccc2F)[nH]c2ccc(CNC(=O)c3cc[nH]n3)cc12 [Compound S3-16],> 100 µM
6,Cc1nsc(NC(=O)N2CCC(F)CC2)n1 [Compound S2-10],> 100 µM
7,CCc1[nH]c2c(CNC(=O)CCCc3cn[nH]c3)cc(F)cc2c1C [Compound S3-25],> 100 µM
8,Cc1c(-c2ccccc2F)[nH]c2ccc(CNC(=O)Cc3cccnc3)cc12 [Compound S3-19],> 100 µM
9,Cc1nsc(NC(=O)N2CCC(Cn3ccnc3C)CC2)n1 [Compound S2-8],> 100 µM
10,Cc1cccc2c(-c3cccc(C(N)=O)n3)c[nH]c12 [Compound S3-24],> 100 µM
11,Cc1nsc(NC(=O)N2CCC(CN3CCCC3=O)CC2)n1 [Compound S2-9],> 100 µM

# Test system: PSA expression in C4-2 cells
# Assay: Western blot of PSA expression in C4-2 cells
# Assay type: cell-based
# Details: C4-2 cells, hits 20 μM (enzalutamide 25 μM) 3 h, ±10 nM DHT 24 h
# Procedure: Cell lysate protein concentrations were determined in a bicinchoninic acid (BCA) assay. Equal amounts of cell protein were mixed with SDS-PAGE sample buffer and placed in a heat block at 100° C. for 5 min. The protein constituents of C4-2 cells were separated by SDS-PAGE on 10% separating gels, transferred to nitrocellulose membranes and western blots were probed overnight at 4° C. with a 1:1000 dilution of a rabbit anti-hPSA (Cell Signaling, Danvers, MA) primary antibody in Tris-buffered saline (TBS) Tween 20 (TBST) containing 5% non-fat milk. Membranes were washed 3× in TBST for 10 min, then incubated for 1 h at room temperature with a 1:10,000 dilution of the goat anti-rabbit IgG horse radish peroxidase (HRP) conjugated secondary antibody (Invitrogen, Carlsbad, CA) in TBST containing 5% non-fat milk. Western blots were then washed 3× in TBST and developed with Pierce enhanced chemiluminescence (ECL) western blotting substrate (Thermo Fisher Scientific, Waltham, MA). Images of western blot ECL bands were acquired on an iBright™ 1500 imaging system (Thermo Fisher Scientific, Waltham, MA) and quantified by iBright™ image analysis software.
row,Structure (SMILES),Endogenous and DHT-enhanced PSA expression
1,"CNC(=O)c1ccc(N2C(=S)N(c3ccc(C#N)c(C(F)(F)F)c3)C(=O)C2(C)C)cc1F [enzalutamide, reference compound]",inhibits DHT-enhanced PSA expression

# Biological target: T1, AR-TIF2 PPI
# Assay: AR-TIF2 PPIB HCS assay: disruption of preformed DHT-induced AR-TIF2 PPI complexes (DHT then compound)
# Assay type: cell-based
# Details: DHT then compound; U-2 OS cells; read-out: D then C IC50
# Procedure: as §1, §2, §3
row,Structure (SMILES),pIC50
1,CNC(=O)c1ccc(OC)c(-c2c[nH]c3ccc(C)cc23)c1 [Compound S3-22],< 4.00
2,Cc1cccc2c(-c3ccc(Cl)c(C(N)=O)c3)c[nH]c12 [Compound S3-23],4.34
3,Cc1c(-c2ccccc2F)[nH]c2ccc(CNC(=O)C3=NNC(=O)CC3)cc12 [Compound S3-18],< 4.00
4,Cc1ccc2[nH]cc(-c3cc(CN)ccc3F)c2c1 [Compound S3-20],4.15
5,Cc1c(-c2ccccc2F)[nH]c2ccc(CNC(=O)c3cc[nH]n3)cc12 [Compound S3-16],< 4.00
6,Cc1nsc(NC(=O)N2CCC(F)CC2)n1 [Compound S2-10],< 4.00
7,CCc1[nH]c2c(CNC(=O)CCCc3cn[nH]c3)cc(F)cc2c1C [Compound S3-25],< 4.00
8,Cc1nsc(NC(=O)N2CCC(Cn3ccnc3C)CC2)n1 [Compound S2-8],< 4.00
9,Cc1cccc2c(-c3cccc(C(N)=O)n3)c[nH]c12 [Compound S3-24],4.59
10,Cc1nsc(NC(=O)N2CCC(CN3CCCC3=O)CC2)n1 [Compound S2-9],< 4.00

# Same assay, conditions: U-2 OS cells, 25 nM DHT; read-out: Disruption of DHT-induced AR-TIF2 PPIs IC50
row,Structure (SMILES),pIC50
1,Cc1nsc(NC(=O)N2CCC(F)CC2)n1 [Compound S2-10],< 4.00
2,Cc1nsc(NC(=O)N2CCC(Cn3ccnc3C)CC2)n1 [Compound S2-8],< 4.00
3,Cc1nsc(NC(=O)N2CCC(CN3CCCC3=O)CC2)n1 [Compound S2-9],< 4.00
